Patent US12606798B2, “Methods and materials for hematoendothelial differentiation of human pluripotent stem cells under defined conditions” (WISCONSIN ALUMNI RESEARCH FOUNDATION, priority 2013, dated 2026)

How the values were obtained:
Format in all cases: cell-based, human
[1] = system: H1 hESCs; assay: Hematopoietic differentiation of H1 hESCs in chemically defined conditions with TGFβ inhibitor, flow cytometry
Description: (§1) Human pluripotent stem cells were detached from vitronectin or matrigel when they reached 80% confluency using 1× TrypLE (Life Technologies) and plated at an optimized density ranging from 5000 cells/cm^2 to 15,000 cells/cm^2 depending on the cell line onto 6-well plates coated with 0.5 μg/cm^2 of ColIV (Sigma-Aldrich) or 0.5 μg/cm^2 Tenascin-C (Millipore) in E8 media supplemented with 10 μM Rho Kinase inhibitor (Tocris Y-27632). After 24 hours (day 0), the media was changed to IF9S media supplemented with 50 ng/ml BMP4 (Peprotech), 15 ng/ml Activin A (Peprotech), 50 ng/ml FGF2 (Miltenyi Biotech), 2 mM LiCl (Sigma), and on occasion, 1 μM Rho Kinase inhibitor to increase cell viability. On day 2, the media was changed to IF9S media supplemented with 50 ng/ml FGF2 and 50 ng/ml VEGF, and 10 μM SB-431542 (Tocris) where mentioned. On day 4, the media was changed to IF9S media supplemented with 50 ng/ml FGF2, VEGF, TPO, SCF, IL-6, and 10 ng/ml IL-3. On day 6, additional IF9S media supplemented with the same 6 factors were added to the cultures without aspirating the old media (Table 3 Table 3). IF9S (IMDM/F12 with 9 supplements) was made in-house with the following: 50% IMDM 50% F12 (Life Technologies) supplemented with 64 mg/L L-ascorbic Acid 2-Phosphate Mg2+ salt (Sigma-Aldrich), 40 ul/L monothioglycerol (Sigma-Aldrich), 8.4 μg/L additional sodium selenite (Sigma-Aldrich), 10 mg/L polyvinyl alcohol (Sigma-Alderich), 1× glutamax (Life Technologies), 1× non-essential amino acids (Life Technologies), 0.1× chemically defined lipid concentrate (Life Technologies), 10.6 mg/L Holo-Transferrin (Sigma-Aldrich), and 20 mg/L Insulin (Sigma-Aldrich) (Table 2). Differentiation was conducted in hypoxic condition from day 0 to day 5, and transferred to normoxic condition from day 6 to day 9 (FIG. 1). The 1× TrypLE was used to dissociate and collect cells for analysis. Flow Cytometry was conducted using the using a FACSCalibur flow cytometer and following antibodies: CD31-FITC (clone WM59), CD34-FITC (8G12), CD41a-FITC/APC (clone HIPS), CD43-FITC/PE/APC (clone 1G10), CD45-APC (clone HI30), CD73-FITC/PE (clone AD2), CD144-FITC/PE/AlexaFluor647 (clone 55-7H1), CD235a-FITC/PE/APC (clone GA-R2), KDR-PE/AlexaFluor647 (clone 89106), PDGFRα-PE (clone aR1) (BD Biosciences), TRA-1-85-FITC/PE (clone TRA-1-85), and APLNR-APC (clone 72133) (R&D Systems). Sorting was conducted on a FACS Aria, as described previously 46. The purity of isolated populations was 92-95%. Recent studies have shown that adding TGF-β inhibitors after mesoderm specification but before endothelial development increases definitive hematopoietic differentiation.

[2] = system: CD43+ cells collected from H1 hESCs; assay: T-cell differentiation of day 9 cultures on OP9-DLL4; details: CD43+ cells from day 9 cultures on the matrix, OP9-DLL4 coculture
Description: An OP9 cell line (OP9-DLL4) constitutively expressing human delta-like ligand 4 (DLL4) was established by our lab using lentivirus and was maintained similarly to OP9. After human pluripotent stem cells were differentiated for 9 days, the floating cells were collected, strained through a 70 μm cell strainer (BD Biosciences) and washed. Then, they were resuspended in T-cell differentiation media consisting of α-MEM (Gibco) supplemented with 20% FBS (Hyclone) supplemented with IL7 (5 ng/ml), Flt3L (5 ng/ml) and SCF ([…]). Then, they were plated on an OP9-DLL4 and cultured at 37° C. and 5% CO2. After 4 days, the cells were harvested using collagenase IV (Gibco) solution (1 mg/ml in DMEM/F12, Gibco) and 1× TrypLE (Invitrogen), and passaged onto a fresh layer of OP9-DLL4. After 3 days, the cells are passaged again. Subsequent passages are conducted every 7 days up to 4 weeks, after which the floating cells are collected for flow analysis and genomic DNA extraction for TCR rearrangement assay.

[3] = system: hESCs; assay: Mesenchymo- (MB) and hemangioblast (HB) colony assay; details: day 2 and day 3 cultures; TenC compared with ColIV
Description: MB and HB were detected using serum-free CFC medium supplemented with FGF2 assay as previously described^11. Day 2 or 3 cultures were dissociated and prepared in a single-cell suspension using 1× TrypLE (Life Technologies) and 5,000 cells of the total culture were plated into the CFC media. MB and HB colonies were scored 12 days after plating the single-cell suspension.

[4] = system: hESCs; assay: Hematopoietic CFC assay; details: day 8, TenC compared with ColIV
Description: Hematopoietic CFC were detected using serum-containing H4436 Methocult™ supplemented with human recombinant SCF, G-CSF, GM-CSF, IL-3, IL-6, and EPO (Stem Cell Technologies). Hematopoietic potential of AHPs was evaluated using serum-free SF H4236 methocult with added FGF2 (20 ng/ml), SCF (20 ng/mL), IL3 (10 ng/mL), IL6 (10 ng/mL), and EPO (2 U/mL) (Stem Cell Technologies) as previously described^6. 1000-10000 differentiated cells were plated into the CFC medium and the colonies were scored after 14 days of culture.

[5] = system: hESCs; assay: hPSC hematoendothelial differentiation on ColIV vs TenC in chemically defined conditions, flow cytometry
Description: as §1, with “analysis.” for “analysis. Flow Cytometry was conducted using the using a FACSCalibur flow cytometer and following antibodies: CD31-FITC (clone WM59), CD34-FITC (8G12), CD41a-FITC/APC (clone HIPS), CD43-FITC/PE/APC (clone 1G10), CD45-APC (clone HI30), CD73-FITC/PE (clone AD2), CD144-FITC/PE/AlexaFluor647 (clone 55-7H1), CD235a-FITC/PE/APC (clone GA-R2), KDR-PE/AlexaFluor647 (clone 89106), PDGFRα-PE (clone aR1) (BD Biosciences), TRA-1-85-FITC/PE (clone TRA-1-85), and APLNR-APC (clone 72133) (R&D Systems). Sorting was conducted on a FACS Aria, as described previously 46. The purity of isolated populations was 92-95%. Recent studies have shown that adding TGF-β inhibitors after mesoderm specification but before endothelial development increases definitive hematopoietic differentiation.”
Flow Cytometry was conducted using the using a FACSCalibur flow cytometer and following antibodies: CD31-FITC (clone WM59), CD34-FITC (8G12), CD41a-FITC/APC (clone HIPS), CD43-FITC/PE/APC (clone 1G10), CD45-APC (clone HI30), CD73-FITC/PE (clone AD2), CD144-FITC/PE/AlexaFluor647 (clone 55-7H1), CD235a-FITC/PE/APC (clone GA-R2), KDR-PE/AlexaFluor647 (clone 89106), PDGFRα-PE (clone aR1) (BD Biosciences), TRA-1-85-FITC/PE (clone TRA-1-85), and APLNR-APC (clone 72133) (R&D Systems). Sorting was conducted on a FACS Aria, as described previously 46. The purity of isolated populations was 92-95%.

| Molecule | development of PDGFRalpha-positive mesoderm cells ([1]; 10 μM added from day 2 to day 4, read on day 3) | CD31+ differentiation ([1]; 10 μM added from day 2 to day 4, read on day 4) | CD43+ population ([1]; 10 μM added from day 2 to day 4, read on day 9) | CD43+ hematopoietic progenitors ([1]; added from day 2 to day 4 only, day 8) | endothelial progenitors ([1]; added from day 2 to day 4 only, days 4 and 5) | capacity of CD43+ cells to generate CD5+CD7+ lymphoid progenitors [2] | progression toward CD4+CD8+ T lymphoid cells ([2]; week 3) | MB and HB colonies [3] | GEMNI-CFC potential of cultures [4] | CFC potential of cultures ([4]; 3 experiments, p<0.01) | hematopoietic differentiation potential of CB hiPSCs ([5]; cord blood mononuclear cell-derived hiPSCs) | percentage of KDRhiAPLNR+PDGFRalphalo/− HVMPs cells ([5]; day 4, TenC compared with ColIV) | population of total CD144+ cells (HEPs, non-HEPs, AHPs) ([5]; day 5, compared to cultures differentiated on ColIV) | CD43+ hematopoietic progenitors expansion ([5]; day 8, TenC compared to ColIV) | APLNR+PDGFRalpha+ cells ([5]; days 2 and 3, TenC compared with ColIV) |
| --- | --- | --- | --- | --- | --- | --- | --- | --- | --- | --- | --- | --- | --- | --- | --- |
| NC(=O)c1ccc(-c2nc(-c3ccc4c(c3)OCO4)c(-c3ccccn3)[nH]2)cc1 [SB-431542] | significantly decreases | increases | continues to increase | significant increase | increases |  |  |  |  |  |  |  |  |  |  |
| TenC: human Tenascin C extracellular matrix protein (GenBank CAA55309.1; Millipore CC065) used as culture substrate |  |  |  |  |  | had a capacity | observed only from CD43^+ cells generated on TenC | significantly higher | significantly greater | higher CFC potential | restored hematopoietic differentiation potential of CB hiPSCs to the level seen with hESCs and FB hiPSCs | consistently higher | larger population | expanded significantly more | significantly higher |
